Data reported in patent publication US20060128724A1, “Pyrazole-substituted aminoheteroaryl compounds as protein kinase inhibitors” (AGOURON PHARMACEUTICALS, INC., priority 2004, published 2006).

biological target: T1, c-MET (HGFR) (Homo sapiens, UniProt P08581); assay: HGFR Continuous-Coupled Spectrophotometric Assay; assay type: biochemical; details: Met-2 substrate peptide, 50 nM HGFR, 37° C.; read-out: c-Met Ki
T1 construct: purchased Upstate 14-526
Excerpt: The following in vitro assay may be used to determine the level of activity and effect of the different compounds of the present invention on one or more of the PKs. Similar assays can be designed along the same lines for any PK using techniques well known in the art.
The general procedure is as follows: compounds and kinase assay reagents are introduced into test wells. The assay is initiated by addition of the kinase enzyme. Enzyme inhibitors reduce the measured activity of the enzyme.
In the continuous-coupled spectrophotometric assay the time-dependent production of ADP by the kinase is determined by analysis of the rate of consumption of NADH by measurement of the decrease in absorbance at 340 nm. As the PK produces ADP it is re-converted to ATP by reaction with phosphoenol pyruvate and pyruvate kinase. Pyruvate is also produced in this reaction. Pyruvate is subsequently converted to lactate by reaction with lactate dehydrogenase, which simultaneously converts NADH to NAD.
HGFR Continuous-Coupled Spectrophotometric Assay
This assay analyzes the tyrosine kinase activity of HGFR on the Met-2 substrate peptide, a peptide derived from the activation loop of the HGFR.
• 1. […] Dissolve up in 200 mM HEPES, pH 7.5 at 10 mM stock. • 3. 1 M PEP (phospho-enol-pyruvate) in 200 mM HEPES, pH 7.5 • 4. 100 mM NADH (B-Nicotinamide Adenine Dinucleotide, Reduced Form) in 200 mM HEPES, pH 7.5 • 5. 4 M MgCl2 (Magnesium Chloride) in ddH2O • 6. 1 M DTT (Dithiothreitol) in 200 mM HEPES, pH 7.5 • 7. 15 Units/mL LDH (Lactic Dehydrogenase) • 8. 15 Units/mL PK (Pyruvate Kinase) • 9. 5M NaCl dissolved in ddH2O • 10. Tween-20 (Protein Grade) 10% Solution • 11. 1 M HEPES buffer: (N-[2-Hydroxethyl]piperazine-N-[2-ethanesulfonic acid]) Sodium Salt. Dissolve in ddH2O, adjust pH to 7.5, bring volume to 1 L. Filter at 0.1 μm. • 12. […] 100% DMSO (SIGMA) • 14. […] Beckman DU-650 w/micro cell holders • 18. Beckman 4-position micro cell cuvette Procedure:
Prep Dilution Buffer (DB) for Enzyme (For 30 mL prep) • 1. DB final concentration is 2 mM DTT, 25 mM NaCl2, 5 mM MgCl2, 0.01% Tween-20, and 50 mM HEPES buffer, pH 7.5. • 2. Make up 50 mM HEPES by adding 1.5 mL 1 M HEPES into 28.1 mL of ddH2O. Add rest of the reagents. Into 50 mL conical vial, add 60 μL of 1M DTT, 150 μL 5M NaCl2, 150 μL 1M MgCl2, and 30 μL of 10% Tween-20 to give total volume of 30 mL. • 3. […] Aliquot out DB at 1 mL/tube and label tubes as “DB HGFR” • 5. Note: This can be prepared and stored ahead of time. • 6. Freeze un-used aliquots in microcentrifuge tubes at −20° C. freezer. […] For compound dilution plate, add 4 μL of 10 mM stock into column 1 of plate, and bring volume to 100 μL with 100% DMSO. • 2. Set up the Precision 2000 dilution method. A final concentration of 200 μM compound in 50% DMSO, 100 mM HEPES (1:2 serial dilution). Prep Coupled Enzymatic Buffer:
1. Final concentration in assay:
• 2. For a 10 mL reaction buffer add 10 μL of 1M PEP, 33 μL of 100 mM NADH, 50 μL of 4M MgCl2, 20 μL of 1M DTT, 6 μL of 500 mM ATP, and 500 μL of 10 mM Met-2 peptide into 100 mM HEPES buffer pH 7.5 and vortex/mix. • 3. Add coupling enzymes, LDH and PK, into reaction mix. Mix by gentle inversion. Running Samples
1. Spectrophotometer settings:
• 2. Add 85 μL of CE reaction mix into each well of assay plate. • 3. Add 5 μL of diluted compound into a well of the assay plate. • 4. Add 5 μL of 50% DMSO for negative control into last column of assay plate. • 5. Mix with multi-channel pipettor or orbital shaker. • 6. Pre-incubate for 10 minutes at 37° C. • 7. Add 10 μL of 500 nM HGFR to each well of assay plate; the final HGFR concentration is 50 nM in a total final volume of 100 μL. • 8. Measure activity for 10 minutes at λ=340 nm and 37° C.

T1 sequence (P08581 974-1390 limits assumed): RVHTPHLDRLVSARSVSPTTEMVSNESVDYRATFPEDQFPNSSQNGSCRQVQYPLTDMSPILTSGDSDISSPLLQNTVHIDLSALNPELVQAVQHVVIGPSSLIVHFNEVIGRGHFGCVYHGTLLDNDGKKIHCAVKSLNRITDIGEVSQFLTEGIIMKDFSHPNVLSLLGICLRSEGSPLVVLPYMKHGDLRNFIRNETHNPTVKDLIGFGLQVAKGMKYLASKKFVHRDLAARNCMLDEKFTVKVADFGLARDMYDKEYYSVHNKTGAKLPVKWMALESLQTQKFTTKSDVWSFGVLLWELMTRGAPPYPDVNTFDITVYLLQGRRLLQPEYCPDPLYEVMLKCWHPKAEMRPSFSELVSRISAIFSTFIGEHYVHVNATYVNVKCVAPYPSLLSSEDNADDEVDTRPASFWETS

| Structure (SMILES) | Ki |
| --- | --- |
| CC(C)Cn1cc(-c2cnc(N)c(OC(C)c3c(Cl)ccc(F)c3Cl)c2)cn1 (stereo not shown) [Example 22, 3-[1-(2,6-Dichloro-3-fluoro-phenyl)-ethoxy]-5-(1-isobutyl-1H-pyrazol-4-yl)-pyridin-2-ylamine] | 100 nM |
| CC(Oc1cc(-c2cnn(CC(C)(C)C)c2)cnc1N)c1c(Cl)ccc(F)c1Cl (stereo not shown) [Example 23, 3-[1-(2,6-Dichloro-3-fluoro-phenyl)-ethoxy]-5-[1-(2,2-dimethyl-propyl)-1H-pyrazol-4-yl]-pyridin-2-ylamine] | 120 nM |
| CCN(CC)CCNC(=O)C(C)(C)n1cc(-c2cnc(N)c(OC(C)c3c(Cl)ccc(F)c3Cl)c2)cn1 (stereo not shown) [Example 24, 2-(4-{6-Amino-5-[1-(2,6-dichloro-3-fluoro-phenyl)-ethoxy]-pyridin-3-yl}pyrazol-1-yl)-N-(2-diethylamino-ethyl)-isobutyramide] | 220 nM |
| CC(Oc1cc(-c2cnn(C3CCOC3)c2)cnc1N)c1c(Cl)ccc(F)c1Cl (stereo not shown) [Example 27, 3-[1-(2,6-Dichloro-3-fluoro-phenyl)-ethoxy]-5-[1-(tetrahydro-furan-3-yl)-1H-pyrazol-4-yl]-pyridin-2-ylamine] | 40 nM |
| CC(Oc1cc(-c2cnn(CC3CC4CCC3O4)c2)cnc1N)c1c(Cl)ccc(F)c1Cl (stereo not shown) [Example 28, 3-[1-(2,6-Dichloro-3-fluoro-phenyl)-ethoxy]-5-[1-(7-oxa-bicyclo[2.2.1]hept-2-ylmethyl)-1H-pyrazol-4-yl]-pyridin-2-ylamine] | 60 nM |
| CC(Oc1cc(-c2cnn(C(C)(C)C(=O)NCCCO)c2)cnc1N)c1c(Cl)ccc(F)c1Cl (stereo not shown) [Example 32, 2-(4-{6-Amino-5-[1-(2,6-dichloro-3-fluoro-phenyl)-ethoxy]-pyridin-3-yl}-pyrazol-1-yl)-N-(3-hydroxy-propyl)-isobutyramide] | 70 nM |
| Cc1nn(C(C)(C)C(=O)O)cc1-c1cnc(N)c(OC(C)c2c(Cl)ccc(F)c2Cl)c1 (stereo not shown) [Example 33, 2-(4-{6-Amino-5-[1-(2,6-dichloro-3-fluoro-phenyl)-ethoxy]-pyridin-3-yl}-3-methyl-pyrazol-1-yl)-2-methyl-propionic acid] | 130 nM |
| COCCNC(=O)C(C)(C)n1cc(-c2cnc(N)c(OC(C)c3c(Cl)ccc(F)c3Cl)c2)cn1 (stereo not shown) [Example 34, 2-(4-{6-Amino-5-[1-(2,6-dichloro-3-fluoro-phenyl)-ethoxy]-pyridin-3-yl}-pyrazol-1-yl)-N-(2-methoxy-ethyl)-isobutyramide] | 90 nM |
| CC(Oc1cc(-c2cnn(C(C)(C)C(=O)NCCO)c2)cnc1N)c1c(Cl)ccc(F)c1Cl (stereo not shown) [Example 35, 2-(4-{6-Amino-5-[1-(2,6-dichloro-3-fluoro-phenyl)-ethoxy]-pyridin-3-yl}-pyrazol-1-yl)-N-(2-hydroxy-ethyl)-isobutyramide] | 60 nM |
| Cc1nn(C(C)(C)C(=O)NCCCN(C)C)cc1-c1cnc(N)c(OC(C)c2c(Cl)ccc(F)c2Cl)c1 (stereo not shown) [Example 36, 2-(4-{6-Amino-5-[1-(2,6-dichloro-3-fluoro-phenyl)-ethoxy]-pyridin-3-yl}-3-methyl-pyrazol-1-yl)-N-(3-dimethylamino-propyl)-isobutyramide] | 90 nM |
| Cc1nn(C(C)(C)C(=O)NCCN2CCCC2)cc1-c1cnc(N)c(OC(C)c2c(Cl)ccc(F)c2Cl)c1 (stereo not shown) [Example 37, 2-(4-{6-Amino-5-[1-(2,6-dichloro-3-fluoro-phenyl)-ethoxy]-pyridin-3-yl}3-methyl-pyrazol-1-yl)-N-(2-pyrrolidin-1-yl-ethyl)-isobutyramide] | 70 nM |

Second part, the molecule after the results:

| Ki | Structure (SMILES) |
| --- | --- |
| 10 nM | CC(Oc1cc(-c2cnn(C3CCN(C(C)C)CC3)c2)cnc1N)c1c(Cl)ccc(F)c1Cl (stereo not shown) [Example 38, 3-[1-(2,6-Dichloro-3-fluoro-phenyl)-ethoxy]-5-[1-(1-isopropyl-piperidin-4-yl)-1H-pyrazol-4-yl]-pyridin-2-ylamine] |
| 10 nM | CC(Oc1cc(-c2cnn(C3CCN(C)CC3)c2)cnc1N)c1c(Cl)ccc(F)c1Cl (stereo not shown) [Example 39, 3-[1-(2,6-Dichloro-3-fluoro-phenyl)-ethoxy]-5-[1-(1-methyl-piperidin-4-yl)-1H-pyrazol-4-yl]-pyridin-2-ylamine] |
| 10 nM | CC(Oc1cc(-c2cnn(C3CCN(C(=O)CO)CC3)c2)cnc1N)c1c(Cl)ccc(F)c1Cl (stereo not shown) [Example 40, 1-[4-(4-{6-Amino-5-[1-(2,6-dichloro-3-fluoro-phenyl)-ethoxy]-pyridin-3-yl}-pyrazol-1-yl)-piperidin-1-yl]-2-hydroxy-ethanone] |
| 10 nM | CC(=O)N1CCC(n2cc(-c3cnc(N)c(OC(C)c4c(Cl)ccc(F)c4Cl)c3)cn2)CC1 (stereo not shown) [Example 41, 1-[4-(4-{6-Amino-5-[1-(2,6-dichloro-3-fluoro-phenyl)-ethoxy]-pyridin-3-yl}-pyrazol 1-yl)-piperidin-1-yl]-ethanone] |
| 20 nM | CC(Oc1cc(-c2cnn(C3CCN(CC#N)CC3)c2)cnc1N)c1c(Cl)ccc(F)c1Cl (stereo not shown) [Example 42, [4-(4-{6-Amino-5-[1-(2,6-dichloro-3-fluoro-phenyl)-ethoxy]-pyridin-3-yl}-pyrazol-1-yl)-piperidin-1-yl]-acetonitrile] |
| 10 nM | CCN1CCC(n2cc(-c3cnc(N)c(OC(C)c4c(Cl)ccc(F)c4Cl)c3)cn2)CC1 (stereo not shown) [Example 43, 3-[1-(2,6-Dichloro-3-fluoro-phenyl)-ethoxy]-5-[1-(1-ethyl-piperidin-4-yl)-1H-pyrazol-4-yl]-pyridin-2-ylamine] |
| 10 nM | CC(Oc1cc(-c2cnn(C3CCN(C(=O)CN(C)C)CC3)c2)cnc1N)c1c(Cl)ccc(F)c1Cl (stereo not shown) [Example 44, 1-[4-(4-{6-Amino-5-[1-(2,6-dichloro-3-fluoro-phenyl)-ethoxy]-pyridin-3-yl}-pyrazol-1-yl)-piperidin-1-yl]-2-dimethylamino-ethanone] |
| 10 nM | CC(Oc1cc(-c2cnn(C3CCN(CC4CC4)CC3)c2)cnc1N)c1c(Cl)ccc(F)c1Cl (stereo not shown) [Example 45, 5-[1-(1-Cyclopropylmethyl-piperidin-4-yl)-1H-pyrazol-4-yl]-3-[1-(2,6-dichloro-3-fluoro-phenyl)-ethoxy]-pyridin-2-ylamine] |
| 10 nM | C[C@@H](Oc1cc(-c2cnn(C3CCN(C)CC3)c2)cnc1N)c1c(Cl)ccc(F)c1Cl [Example 46, 3-[(R)-1-(2,6-Dichloro-3-fluoro-phenyl)-ethoxy]-5-[1-(1-methyl-piperidin-4-yl)-1H-pyrazol-4-yl]-pyridin-2-ylamine] |
| 4 nM | C[C@@H](Oc1cc(-c2cnn(C3CCN(C(=O)CO)CC3)c2)cnc1N)c1c(Cl)ccc(F)c1Cl [Example 47, 1-[4-(4-{6-Amino-5-[(R)-1-(2,6-dichloro-3-fluoro-phenyl)-ethoxy]-pyridin-3-yl}-pyrazol-1-yl)-piperidin-1-yl]-2-hydroxy-ethanone] |
| 20 nM | CC(Oc1cc(-c2cnn(C3CCC3)c2)cnc1N)c1c(Cl)ccc(F)c1Cl (stereo not shown) [Example 49, 5-(1-Cyclobutyl-1H-pyrazol-4-yl)-3-[1-(2,6-dichloro-3-fluoro-phenyl)-ethoxy]-pyridin-2-ylamine] |
